The source of these data is patent US11054425B2, “System and method for identification and characterization of transglutaminase species” (Roche Sequencing Solutions, Inc., priority 2014, dated 2021).

No end group written: not given here. *: point of attachment. Cbz = O=C(OCc1ccccc1)*

Format in all cases: biochemical, Kutzneria albida
Assay [1] deals with KalbTG. The assay is described as follows: GLDH-coupled assay in solution (NADH oxidation). The conditions noted are these: NADH oxidation at 340 nm, 37° C. The procedure:
KalbTG activity was obtained by measuring incorporation of a biotinylated amine-donor on the peptide array and rates of NADH oxidation at 340 nm and 37° C. in the presence of amine-donor substrate (500 μM) in the GLDH-coupled assay using 100 μM each of nine of the best-performing array-selected glutamine-containing substrates and of two S. mobaraensis MTG glutamine-containing substrates. […] Testing of the top sequences in Table 1 confirmed YRYRQ (SEQ ID NO: 1) and RYRQR (SEQ ID NO 14) as the top performing 5-mer substrates, with turnover rates of 3.52±0.08 pmol NADH s^−1 and 3.60±0.12 pmol NADH s^−1, respectively.
With reference to Table 2, KalbTG activity was obtained by measuring incorporation of a biotinylated glutamine-donor and rates of NADH oxidation at 340 nm and 37° C. in the presence of glutamine-donor substrate (200 μM) in the GLDH-coupled assay using 100 μM each of i) six of the top-performing array-selected lysine substrates, ii) cadaverine, and iii) preferred MTG lysine substrate ARSKL (SEQ ID NO:30). […] This is a small but significant increase over cadaverine (3.51±0.12 pmol s^−1) or ARSKL (SEQ ID NO:30) (3.87±0.31 pmol s^−1), a peptide previously established as a preferred MTG lysine donor motif on the peptide array. Additional details on the S. mobaraensis MTG substrate peptide ARSKL (SEQ ID NO:30) can be found in U.S. Provisional Patent Application Ser. No. 62/094,495 to Albert et al. filed on Dec. 19, 2014.
For the GLDH coupled assay, to determine whether the KalbTG peptides selected in the array assay were also preferred substrates in a solution reaction and to quantify cross-reactivity of KalbTG and S. mobaraensis MTG with various substrates, a continuous glutamate dehydrogenase (GLDH)-coupled assay for S. mobaraensis MTG activity (see Oteng-Pabi, et al., 2013. Analytical biochemistry 441(2): 169-173) was applied.
For glutamine substrate evaluation, the assay was performed in a transparent 96-well microtiter plate in the presence of 500 μM α-ketoglutarate, 500 μM or 1 mM cadaverine as Amine donor substituting for a lysine-containing peptide, 2 U ml^−1 of glutamate dehydrogenase (GLDH), 500 μM NADH and glutamine-containing substrate peptide (Z-[[…] (SEQ ID NO:77)], Z-[[…] (SEQ ID NO:78)], Z-[[…] (SEQ ID NO:75)], Z-[[…] (SEQ ID NO:79)], Z-[[…] (SEQ ID NO:80)], Z-[[…] (SEQ ID NO:81)], Z-[[…] (SEQ ID NO:82)], Z-[[…] (SEQ ID NO:83)], Z-[[…] (SEQ ID NO:84)], Z-[[…] (SEQ ID NO:85)], Z-[[…] (SEQ ID NO:86)], Z-[[…] (SEQ ID NO:76)] or Z-[[…] (SEQ ID NO:87)]) concentrations ranging between 0 and 1 mM in 200 mM MOPS, 1 mM EDTA pH 7.2 (total volume per well 200 μl).
For amine substrate evaluation, assay conditions were the same as for glutamine substrate evaluation with the exception that 100 μM each of amine substrate (Z-[[…] (SEQ ID NO:88)], Z-[[…] (SEQ ID NO:89)], Z-[[…] (SEQ ID NO:90)], Z-[[…] (SEQ ID NO:91)], Z-[[…] (SEQ ID NO:92)], Z-[[…] (SEQ ID NO:93)], Z-[[…] (SEQ ID NO:94)], Z-[[…] (SEQ ID NO:95)] or cadaverine) and 200 μM glutamine donor (Z-[[…] (SEQ ID NO:75)] or Z-[[…] (SEQ ID NO:76)]) were used.
Reactions were started by the addition of 5 μg ml^−1 of S. mobaraensis MTG or KalbTG and the oxidation of NADH was continuously recorded at 340 nm for 60 minutes using a Biotek Synergy H4 microplate reader, temperature controlled at 37° C., with short shaking intervals before each measurement. After a short lag phase where the GLDH was saturated by transglutaminase-mediated release of ammonia, linear rates of absorbance versus time corresponding to transglutaminase turnover were observed and subjected to Michaelis-Menten kinetic analysis. […]

Assay [2] deals with KalbTG. Kind of assay: 5-mer peptide array, lysine-substrate screening with biotinylated glutamine donor. Conditions: incorporation of biotinylated glutamine-donor on 5-mer peptide array. The text has this: A second round of maturation on the peptide array yielded […] (SEQ ID NO:24) as the top performing 9-mer substrate, which was then resynthesized as biotinylated peptide to act as acyl donor for the discovery of optimized lysine recognition motifs back on the 5-mer peptide array (FIG. 4B). Again, six of the best lysine-containing peptides were resynthesized and tested in the KalbTG in-solution activity assay using a peptide containing the optimized glutamine recognition sequence YRYRQ (SEQ ID NO:1) as an acyl donor (Table 2). It will be appreciated that calculation of an array signal for cadaverine was not applicable due to omission of cadaverine from the array.
(§1) For construction of the peptide array, a library of 1,360,732 unique 5-mer peptides was designed by using all combinations of 18 natural amino acids excluding cysteine and methionine, as well as any dimer or a longer repeat of the same amino acid, and any peptide containing a dipeptide selected from HR, RH, HK, KH, RK, KR, HP, and PQ sequences. The library was synthesized in duplicate on the same array by using maskless light-directed peptide array synthesis. Each 5-mer peptide was flanked on both the N-terminus and C-terminus by 3 amino acid-long linkers synthesized by using mixture of glycine and serine having a 3:1 ratio.
In order to test KalbTG specificity for lysine substrates, chemically synthesized Z-[[…] (SEQ ID NO:31)]-PEG-Biotin peptide—which includes the sequence […] (SEQ ID NO:31)—was used as a glutamine-containing substrate to biotinylate lysine-containing peptides. Array biotinylation was done as described above with 0.1 ng μl^−1 KalbTG, 0.8 μM peptide at 37° C. for 15 minutes. Note that the a “Z—” in front of a peptide or other like construct is used herein to represent a carboxybenzyl group unless stated otherwise.
Target sequence in this assay (as listed by the source): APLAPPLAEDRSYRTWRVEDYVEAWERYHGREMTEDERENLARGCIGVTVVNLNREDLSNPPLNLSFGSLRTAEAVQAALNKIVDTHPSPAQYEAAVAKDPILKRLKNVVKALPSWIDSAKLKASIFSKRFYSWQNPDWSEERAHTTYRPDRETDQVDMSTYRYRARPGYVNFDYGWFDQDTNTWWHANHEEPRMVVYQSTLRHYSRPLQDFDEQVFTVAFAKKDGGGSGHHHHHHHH

Assay [3] has as its system KalbTG. Kind of assay: 5-mer peptide array, glutamine-substrate screening with biotinylated amine donor. Conditions: incorporation of biotinylated amine-donor on 5-mer peptide array. The procedure:
To identify potential acyl-donor and amine-donor substrates of the K. albida transglutaminase, high-throughput screening on 5-mer peptide arrays was performed (FIGS. 4A and 4B). An activity of at least 1.65 U/mg for both the SlyD-fused and the mature KalbTG enzymes was confirmed by commercial assay (Zedira MTG-ANiTA-KIT; compared to 4.3 U mg^−1 by the MTG supplied with the kit and a 0.07 U/mg blank value with BSA). The assay used β-casein as a cross-linking substrate and detected deamidation by a glutamate dehydrogenase dependent oxidation of NADPH. Specific recognition motifs were identified by assaying KalbTG with peptide arrays prepared by maskless array synthesis (U.S. Pat. Pub. No 2015/0185216 to Albert et al. filed on 19 Dec. 2014). The efficiency of the transamidation reaction between 1.4 million unique 5-mer peptides and a biotinylated amine donor was quantified on two arrays in parallel and the sequences of the peptides with the highest turnovers were determined (FIG. 4A). The nine best peptides were resynthesized and tested for KalbTG activity in a standalone GLDH-coupled assay. Note that the array signal for the sequence MLAQG (SEQ ID NO:13) is marked not applicable (n. a.) as this sequence was not included on the array. Similarly, measurement of a background signal was only applicable to experiments performed on the array.
as §1
Target sequence in this assay (as listed by the source): as above
To test KalbTG specificity for glutamine-containing substrate, N-(biotinyl)cadaverine was used as a substitute for a lysine substrate to biotinylate glutamine-peptides on a peptide array. KalbTG labeling reaction was performed in 1200 μL 100 mM Tris-HCl pH 8, 1 mM DTT, 50 μM N-(biotinyl)cadaverine, 0.2 ng μl^−1 KalbTG in SecureSeal™ chamber (Grace Bio-Labs) at 37° C. for 45 minutes. After incubation the chamber was removed and the array was washed in 20 mM Tris-HCl, pH7.8, 0.2 M NaCl, 1% SDS for 1 minute followed by a 1 minute wash in 20 mM Tris-HCl. Biotin linked to the array was stained with 0.3 μg ml^−1 Cy5-streptavidin in 10 mM Tris-HCl, pH7.4, 1% alkali-soluble casein, 0.05% TWEEN-20 non-ionic detergent at room temperature for 1 hour. Cy5 fluorescence intensity was measured with a fluorescence scanner at a resolution of 2 μm and a wavelength of 635 nm.

[4] abbreviates: 100 μM amine substrate, 200 μM glutamine-donor substrate.
The mark [5] stands for this setting: 100 μM glutamine-containing substrate, 500 μM amine-donor substrate.

In the case of `NCCCCCN` [Cadaverine, reference compound], the “Reaction rate in solution” value in assay [1] (setting [4]) was 3.51 ± 0.12 pmol/s; in assay [1] (100 μM amine substrate, 200 μM glutamine-donor substrate, listed as cadaverine), 3.51 ± 0.12 pmol/s.

On to “ARSKL (Cbz-ARSKL) [preferred MTG lysine substrate, reference compound]”, for which, in assay [1] (setting [4]), the “Reaction rate in solution” value was 3.87 ± 0.31 pmol/s. Moreover, the “Array signal (log2)” value in assay [2] was 12.0 log2.

For the compound AYRTK (Cbz-AYRTK) [KalbTG lysine 5-mer], the “Reaction rate in solution” value in assay [1] (setting [4]) came to 3.65 ± 0.17 pmol/s. Further, in assay [2], the “Array signal (log2)” value came out at 12.57 log2.

Turning to “FRQRG (Cbz-FRQRG) [KalbTG glutamine-donor 5-mer]”, the “Reaction rate in solution” value in assay [1] (setting [5]) came to 2.11 ± 0.13 pmol/s. Also, in assay [3], the “Array signal (log2)” value turned out to be 8.82 log2.

Take “FRQRQ (Cbz-FRQRQ) [KalbTG glutamine-donor 5-mer]”: in assay [1] (setting [5]), the “Reaction rate in solution” value stood at 3.07 ± 0.17 pmol/s. The “Array signal (log2)” value in assay [3] is 8.93 log2.

For the compound “QRQRQ (Cbz-QRQRQ) [KalbTG glutamine-donor 5-mer]”, the “Reaction rate in solution” value in assay [1] (setting [5]) came to 2.98 ± 0.01 pmol/s. The “Array signal (log2)” value in assay [3] came out at 8.77 log2.

With “QYRQR (Cbz-QYRQR) [KalbTG glutamine-donor 5-mer]”, the “Reaction rate in solution” value in assay [1] (setting [5]) worked out at 1.92 ± 0.07 pmol/s. In addition, the “Array signal (log2)” value in assay [3] is given as 8.70 log2.

Regarding “RQRQR (Cbz-RQRQR) [KalbTG glutamine-donor 5-mer]”, the “Reaction rate in solution” value in assay [1] (setting [5]) is given as 2.06 ± 0.08 pmol/s. Moreover, the “Array signal (log2)” value in assay [3] is given as 8.84 log2.

Regarding “RYESK (Cbz-RYESK) [KalbTG lysine (K-tag) 5-mer]”, the “Reaction rate in solution” value in assay [1] (setting [4]) was determined as 4.47 ± 0.16 pmol/s. Also, the “Array signal (log2)” value in assay [2] is reported as 12.65 log2.

On to RYGKS (Cbz-RYGKS) [KalbTG lysine 5-mer], for which the “Reaction rate in solution” value in assay [1] (setting [4]) stood at 2.66 ± 0.11 pmol/s. The “Array signal (log2)” value in assay [2] stood at 12.38 log2.

As for “RYRQR (Cbz-RYRQR) [KalbTG glutamine-donor 5-mer]”, the “Reaction rate in solution” value in assay [1] (setting [5]) came out at 3.60 ± 0.12 pmol/s. The “Array signal (log2)” value in assay [3] is 8.96 log2.

RYRSK (Cbz-RYRSK) [KalbTG lysine 5-mer]: the “Reaction rate in solution” value in assay [1] (setting [4]) came out at 3.26 ± 0.10 pmol/s. Besides, in assay [2], the “Array signal (log2)” value turned out to be 12.45 log2.

Take “RYSKY (Cbz-RYSKY) [KalbTG lysine (amine-donor) 5-mer]”: the “Reaction rate in solution” value in assay [1] (setting [4]) was determined as 3.89 ± 0.04 pmol/s. For the same compound, the “Array signal (log2)” value in assay [2] stood at 12.75 log2.

For the compound “RYSQR (Cbz-RYSQR) [KalbTG glutamine-donor 5-mer]”, the “Reaction rate in solution” value in assay [1] (setting [5]) amounted to 3.22 ± 0.10 pmol/s. In addition, in assay [3], the “Array signal (log2)” value is 8.93 log2.

For the compound YKGRG (Cbz-YKGRG) [KalbTG lysine 5-mer], the “Reaction rate in solution” value in assay [1] (setting [4]) was determined as 3.01 ± 0.09 pmol/s. Further, the “Array signal (log2)” value in assay [2] is given as 12.25 log2.

Regarding “YKYRQ (Cbz-YKYRQ) [KalbTG glutamine-donor 5-mer, lysine-containing]”, the “Reaction rate in solution” value in assay [1] (setting [5]) came to 4.00 ± 0.18 pmol/s. Further, the “Array signal (log2)” value in assay [3] was 8.70 log2.
